The values that follow come from US20260191825A1, “CONTRACEPTIVE COMPOUNDS AND DOSING FOR THE SAME” (YourChoice Therapeutics, Inc., priority 2024, published 2026).

“And” between values parts separate entries of the source, which are not always exact repeats. Equal entries are not always repeated.

Data set [1] can be described thus: In vitro stability in microsomes (dog). The class given is in vitro ADME. To be noted: dogs. The protocol: Respective half-lives (T1/2) were 9.5 hours (human), 23.1 hours (monkeys), >23.1 hours (mice), >23.1 hours (rats), 19.6 hours (rabbits), and >23.1 hours (dogs).
A short description of data set [2]: NHP exploratory 14-day non-GLP repeat-dose study. Format: in vivo, cynomolgus monkey. To be noted: male, cynomolgus monkey, in vivo; for NOAEL at 14 days: NHP. How it is done:
(§1) An exploratory 14-day non-GLP study was conducted in male NHPs (cynomolgus monkeys) for assessment of efficacy and toxicity parameters prior to the conduct of the 28-day GLP toxicity studies in rats and dogs.

Data set [3] deals with male NHPs (cynomolgus monkeys). Briefly: NHP exploratory 14-day non-GLP repeat-dose study. The class given is in vivo, cynomolgus monkey. How it is done:
as §1

The test system of data set [4] is CYP3A4/5. Briefly: In vitro CYP inhibition (direct and time-dependent), CYP3A4/5. Format: in vitro ADME. To be noted: human. The source says:
However, the likelihood of drug interactions is low since healthy participants who meet eligibility criteria will be enrolled in this Phase 1b/2a clinical trial. An allowance for select concomitant medications may be considered for select participants at the discretion of the investigator and/or sponsor if drug profiles are not anticipated to interact with Compound A. Such medications may include, but will not be limited to paracetamol or ibuprofen as assessed by both the PI and the Sponsor. […] Additional precautions to avoid grapefruit, pomegranates, star fruit, or Seville oranges for 7 days prior to admission, and juices and products containing these fruits for the duration of the study will be taken.

Data set [5] can be described thus: Rat single dose GLP study (toxicity, sperm parameters). The class given is in vivo. To be noted: male, in vivo; rat, single dose; highest dose tested. The text has this: (§2) No efficacy was observed after single dose studies in the rat.
Data set [6] deals with male rats. The data set is described as above. The class given is in vivo.
Text: as §2

Data set [7] can be described thus: Dog GLP 28-day repeat-dose study, PK at the NOAEL. To be noted: male, Beagle, in vivo, 5 mg/kg, 5 mg/kg (NOAEL); for AUC(0-t): AUC0-24, dog.

For orientation: NOAEL means the highest dose or exposure tested at which no adverse effect was seen. As usually defined, the IC50 is the concentration needed to halve the response being measured. A lower IC50 goes with greater potency in that assay. By AUC(0-t) is commonly meant the area under the concentration-time curve up to a stated or last time point. For orientation: Cmax means the highest concentration seen after dosing. As usually defined, the Tmax is the time at which the peak concentration occurs. As to `Cc1ccc(C2=CC(C)(C)Oc3ccc(-c4ccc(-c5ccc(C(=O)O)cc5)[nH]4)cc32)cc1` [Compound A], the half-life in data set [1] (dog, read-out: Half-life (T1/2) in microsomes) was more than 23.1 h; in data set [7] (T1/2, dog, Day 1, median), 13.9 h. The Compound remaining intact in data set [1] (90 minutes) is reported as 101%. For the same compound, the Human equivalent dose of NOAEL at 14 days in data set [2] (NHP 14-day non-GLP, NOAEL 10 mg/kg/day, read-out: HED of NOAEL) turned out to be 3.2 mg/kg/day. Further, the NOAEL at 14 days in data set [2] (14-day repeat dose non-GLP, 5-20 mg/kg/day) came to 10 mg/kg/day; in data set [2] (14-day repeat-dose), 10 mg/kg. Besides, the “NOAEL increase over the minimum efficacious dose in rats” value in data set [3] (NHP NOAEL 10 mg/kg/day) amounted to 22 fold. In data set [3] (cynomolgus monkey, in vivo), the Signs of toxicity entry was “No signs of toxicity”. In addition, the “HED (based on BSA)” value in data set [3] (of NHP 14-day repeat-dose NOAEL) is 3.23 mg/kg and 3.2 mg/kg. Also, the “HED for 60 kg BW” value in data set [3] (of NHP repeat-dose NOAEL) is on record as 192 mg. The same compound registered an HED for 80 kg BW in data set [3] (of NHP repeat-dose NOAEL) of 256 mg. For the same compound, the IC50 in data set [4] (CYP3A4/5, midazolam as substrate) stood at 58.6 µM; in data set [4] (CYP3A4/5, testosterone as substrate) it was 53.6 µM. This compound also had a no observed adverse effect level (NOAEL) at 15 days in data set [5] of 1000 mg/kg. Moreover, in data set [6] (male rats, GLP study), the “Tolerated single dose (highest dose tested)” value is on record as 1,000 mg/kg. Moreover, the “Human dose 60 kg, safety factor 10” value in data set [6] (male, rat, in vivo, 15 days) is on record as 967.74 mg. Also, the HED in data set [6] (rat, single dose 1,000 mg/kg) is 161.3 mg/kg and 161.29 mg/kg. Further, the “Impact on sperm parameters after single dose” value in data set [6] (rats, single doses as high as 1,000 mg/kg, Day 15 post dose) is recorded as “no impact on sperm parameters”. Moreover, the AUC(0-t) turned out to be 43800 ng·h/mL in data set [7] (Day 1, mean) and 80800 ng·h/mL in data set [7] (Day 28, mean). Besides, the Cmax turned out to be 3410 ng/mL in data set [7] (Day 1, n = 9, mean) and 4800 ng/mL in data set [7] (Day 28, mean). Moreover, the Tmax in data set [7] (Tmax, Day 28, median) is 2 h.
